Assay results taken from the supplement of paper PMC13380429.

What was measured:
Conditions in all cases: 72 h
[1] = tested on: Calu-3; assay: relative viability EC50 (midpoint between 100% and the lowest measured viability); higher = less toxic
[2] = tested on: HepG2; assay: as above
[3] = tested on: Caco-2; assay: as above
[4] = tested on: Vero E6; assay: as above
[5] = tested on: U2OS; assay: as above
[6] = tested on: Calu-3; assay: drug sensitivity score (DSS) for viability; higher = more toxic; extreme values may be limits of the assay
[7] = tested on: HepG2; assay: as above
[8] = tested on: Caco-2; assay: as above
[9] = tested on: Vero E6; assay: as above
[10] = tested on: U2OS; assay: as above
[11] = tested on: Calu-3; assay: cell viability relative to DMSO; higher = less toxic
[12] = tested on: HepG2; assay: as above
[13] = tested on: Caco-2; assay: as above
[14] = tested on: Vero E6; assay: as above
[15] = tested on: U2OS; assay: as above

Row | Compound | relative viability EC50 [1] [µM] | relative viability EC50 [2] [µM] | relative viability EC50 [3] [µM] | relative viability EC50 [4] [µM] | relative viability EC50 [5] [µM] | drug sensitivity score [6] | drug sensitivity score [7] | drug sensitivity score [8] | drug sensitivity score [9] | drug sensitivity score [10] | cell viability ([11]; 1 nM) [%] | cell viability ([11]; 10 nM) [%] | cell viability ([11]; 100 nM) [%] | cell viability ([11]; 1000 nM) [%] | cell viability ([11]; 10000 nM) [%] | cell viability ([12]; 1 nM) [%] | cell viability ([12]; 10 nM) [%] | cell viability ([12]; 100 nM) [%] | cell viability ([12]; 1000 nM) [%] | cell viability ([12]; 10000 nM) [%] | cell viability ([13]; 1 nM) [%] | cell viability ([13]; 10 nM) [%] | cell viability ([13]; 100 nM) [%] | cell viability ([13]; 1000 nM) [%] | cell viability ([13]; 10000 nM) [%] | cell viability ([14]; 1 nM) [%] | cell viability ([14]; 10 nM) [%] | cell viability ([14]; 100 nM) [%] | cell viability ([14]; 1000 nM) [%] | cell viability ([14]; 10000 nM) [%] | cell viability ([15]; 1 nM) [%] | cell viability ([15]; 10 nM) [%] | cell viability ([15]; 100 nM) [%] | cell viability ([15]; 1000 nM) [%] | cell viability ([15]; 10000 nM) [%]
1 | COCCNC(=O)Cn1cnc([N+](=O)[O-])n1 [sanazole] | > 10 | > 10 | > 10 | > 10 | > 10 | 0 | 0 | 0 | 0 | 0 | 96.7 | 106 | 97.6 | 102 | 103 | 103 | 93.3 | 102 | 95.7 | 97.6 | 93 | 99.6 | 95.9 | 93.9 | 93.4 | 99.5 | 99.1 | 95.7 | 101 | 96.6 | 98.3 | 104 | 96.7 | 97.7 | 95.8
2 | CC(=O)CC(c1ccccc1)c1c(O)c2ccccc2oc1=O (stereo not given) [warfarin] | > 10 | > 10 | > 10 | > 10 | > 10 | 0 | 0 | 0 | 0 | 0 | 100 | 91.9 | 104 | 97.8 | 115 | 100 | 85.7 | 94.8 | 98.5 | 107 | 98 | 108 | 101 | 95.1 | 99.7 | 101 | 96.9 | 105 | 103 | 97.1 | 96 | 97.2 | 98.3 | 102 | 94.9
3 | CCOC(=O)[C@@H](C)Oc1cccc2c(=O)n(CC(=O)Nc3ccc4c(c3)OCCO4)ccc12 | > 10 | > 10 | > 10 | > 10 | > 10 | 0 | 0 | 0.3 | 0 | 0 | 92.5 | 88.6 | 80.8 | 95.5 | 89.8 | 106 | 92.7 | 98.6 | 91.4 | 102 | 90.5 | 113 | 95.5 | 101 | 83.5 | 101 | 99.4 | 99 | 98.5 | 99.1 | 98.3 | 101 | 95.8 | 105 | 88.9
4 | CCCCCCCCN=c1ccn(CCCCCCCCCCn2ccc(=NCCCCCCCC)cc2)cc1 [octenidine] | 3.07 | 1.27 | 1.65 | 1.91 | 2.31 | 5.7 | 10.2 | 8.9 | 8.2 | 7 | 106 | 101 | 98.6 | 98.6 | 0.7 | 89.6 | 93.4 | 102 | 65.6 | 2.6 | 98.7 | 97.5 | 101 | 78 | 1 | 96.8 | 94.7 | 92.5 | 83.7 | 0.1 | 95.5 | 104 | 95.4 | 89.9 | 2.7
5 | Cc1ccc(S(=O)(=O)OCC(=O)Nc2ccc(C(=O)O)c(O)c2)cc1 [STAT3-inhibitor-VI] | > 10 | > 10 | > 10 | > 10 | > 10 | 0 | 0 | 0 | 0 | 0 | 102 | 95.1 | 102 | 96.2 | 101 | 102 | 104 | 96.2 | 92.1 | 95.6 | 101 | 93.1 | 90.6 | 90.8 | 99.9 | 98.3 | 97.6 | 94.1 | 98.9 | 89.8 | 103 | 96 | 101 | 104 | 99
6 | N#CCC1(n2cc(-c3ncnc4[nH]ccc34)cn2)CN(C2CCN(C(=O)c3ccnc(C(F)(F)F)c3F)CC2)C1 [itacitinib] | > 10 | > 10 | > 10 | > 10 | > 10 | 0 | 0 | 0 | 0 | 0 | 111 | 104 | 101 | 93.6 | 90.4 | 95.3 | 98.9 | 95 | 96.1 | 91.6 | 101 | 98.6 | 97.2 | 132 | 90.1 | 100 | 96.1 | 98.3 | 100 | 98.5 | 98.6 | 91 | 97.5 | 95.8 | 96
7 | CC(C(=O)O)c1ccc2c(c1)Cc1cccnc1O2 (stereo not given) [pranoprofen] | > 10 | > 10 | > 10 | > 10 | > 10 | 0 | 0 | 0 | 0 | 0 | 97.5 | 92.9 | 97.1 | 100 | 108 | 95.8 | 103 | 94.1 | 104 | 111 | 88.3 | 86.7 | 89.5 | 95.3 | 102 | 96.2 | 96.5 | 98.4 | 100 | 105 | 104 | 99.1 | 95.2 | 104 | 106
